For one assay, the system named is apoE-I3 mRNA. In words: qRT-PCR of apoE-I3 in hippocampus and cortex of kainic acid-treated mice. Type of assay: in vivo, mouse. The conditions noted are these: human apoE knock-in mice, n=3. How it is done:
ApoE-I3 and apoE mRNA levels in different samples were determined in duplicate by quantitative fluorogenic reverse transcription-PCR (qRT-PCR) using GAPDH mRNA as an internal control. RT reactions were performed with Superscript First-strand Synthesis System Kits (Invitrogen, Carlsbad, Calif.) as described earlier. qRT-PCR reactions consisted of 10 μl of diluted cDNA reaction mixture (equivalent to 4.0 ng of RNA template), 12.5 μl of SYBR Green PCR master mix (Applied Biosystems), and 300 nM of each forward and backward primer in a final volume of 25 μl. Serial dilution of pooled cDNA samples from all cells or tissues were used to generate standard curves to determine the relative levels of specific mRNAs in individual samples. The apoE-I3 mRNA levels were then calculated and normalized to the internal GAPDH mRNA standards.
(§1) Kainic acid injections. Kainic acid crosses the blood-brain barrier and induces excitotoxic CNS injury, particularly in the hippocampus and neocortex. Wildtype and human apoE3 or apoE4 knock-in mice at 4-6 months of age were injected intraperitoneally with kainic acid (Sigma) dissolved in saline (0.9%) at 25 mg/kg body weight in one dose, as described. Within ˜15 min, all mice developed seizures. Seizure activity was assessed as described. […] Mice were killed 1-6 days after the injection of kainic acid.
Preparation of mouse brain tissues. […]

Assay [1] is described as follows: Kainic acid injection, seizure activity in mice. The class given is in vivo, mouse. As to conditions: 25 mg/kg intraperitoneally, wildtype and human apoE3 or apoE4 knock-in mice, all mice. How it is done: as §1

Where only a bound is given, the exact number is not on record here.

On to `C=C(C)[C@H]1CN[C@H](C(=O)O)[C@H]1CC(=O)O` [kainic acid, Kainic acid], for which the results for the “increase of apoE-I3 expression (qRT-PCR)” value in the assay on apoE-I3 mRNA (cortex) and in the assay with apoE-I3 mRNA (hippocampus) were “not in the cortex” and “twofold”, respectively. For the same compound, the “time from injection to seizures” value in assay [1] was no more than 15 min.
